Experimental data from the supplement of paper PMC11208160.

Experiment: recombinant barcode read abundance after kanamycin selection (control-corrected) (log10(CPM+1)); higher = more efficient recombination; sequences stand for … in AGTGCAGAGAAAATCGGCCAGTTTTCTCTGCCTGCAGTCCGCATGCCGT…ATTTATGCAGCGGACTGCCTTTCTCCCAAAGTGATAAACCGGACAGTATCATGGACCGGTTTTCCCGGTAATCCGTATTTGCAAGGTTGGTTTCACT; site = the 11-nt target
Summary of the method: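 Two replicates per condition were plated: chloramphenicol/ampicillin LB agar for the control, and chloramphenicol/ampicillin/kanamycin with 0.1 mM IPTG for selection. The pooled E. coli screen behind them paired targets with IS621 bridge RNA target-binding loops. Recombination efficiency is expressed from averaged, control-corrected barcode counts per million at recombinant junctions, as log10(CPM+1).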

Sequence | recombinant barcode read abundance (log10)
GAGGCCTCTTGGGTTCTAACCTGTTGCCAGA [GAGGCCTCTTG_LTGcore_CT_RTGcore_TC] (site GAGGCCTCTTG) (LTG core: CT, RTG core: TC) | 0.245
GAGGCCTCTTGGGTTCTAACCTGTTGCCATG [GAGGCCTCTTG_LTGcore_CT_RTGcore_CA] (site GAGGCCTCTTG) (LTG core: CT, RTG core: CA) | 0.0789
GAGGCCTGGTGGGTTCTAACCTGTTGCCAAG [GAGGCCTCTTG_LTGcore_GG_RTGcore_CT] (site GAGGCCTCTTG) (LTG core: GG, RTG core: CT) | 0.103
GAGGCCTGGTGGGTTCTAACCTGTTGCCACC [GAGGCCTCTTG_LTGcore_GG_RTGcore_GG] (site GAGGCCTCTTG) (LTG core: GG, RTG core: GG) | 0.445
GAGTCCAAATGGGTTCTAACCTGTTGCGTTT [GAGTCCACTAC_LTGcore_AA_RTGcore_AA] (site GAGTCCACTAC) (LTG core: AA, RTG core: AA) | 0.0227
GAGTCCAACTGGGTTCTAACCTGTTGCGTGT [GAGTCCACTAC_LTGcore_AC_RTGcore_AC] (site GAGTCCACTAC) (LTG core: AC, RTG core: AC) | 0.0932
GAGTCCAATTGGGTTCTAACCTGTTGCGTAG [GAGTCCACTAC_LTGcore_AT_RTGcore_CT] (site GAGTCCACTAC) (LTG core: AT, RTG core: CT) | 0.156
GAGTCCACCTGGGTTCTAACCTGTTGCGTGG [GAGTCCACTAC_LTGcore_CC_RTGcore_CC] (site GAGTCCACTAC) (LTG core: CC, RTG core: CC) | 0.0684
GAGTCCACGTGGGTTCTAACCTGTTGCGTAG [GAGTCCACTAC_LTGcore_CG_RTGcore_CT] (site GAGTCCACTAC) (LTG core: CG, RTG core: CT) | 0.114
GAGTCCACTTGGGTTCTAACCTGTTGCGTAT [GAGTCCACTAC_LTGcore_CT_RTGcore_AT] (site GAGTCCACTAC) (LTG core: CT, RTG core: AT) | 0.389
GAGTCCACTTGGGTTCTAACCTGTTGCGTCG [GAGTCCACTAC_LTGcore_CT_RTGcore_CG] (site GAGTCCACTAC) (LTG core: CT, RTG core: CG) | 0.702
GAGTCCAGCTGGGTTCTAACCTGTTGCGTAG [GAGTCCACTAC_LTGcore_GC_RTGcore_CT] (site GAGTCCACTAC) (LTG core: GC, RTG core: CT) | 0.0179
GAGTCCAGTTGGGTTCTAACCTGTTGCGTAG [GAGTCCACTAC_LTGcore_GT_RTGcore_CT] (site GAGTCCACTAC) (LTG core: GT, RTG core: CT) | 0.283
GAGTCCATTTGGGTTCTAACCTGTTGCGTAA [GAGTCCACTAC_LTGcore_TT_RTGcore_TT] (site GAGTCCACTAC) (LTG core: TT, RTG core: TT) | 0.0342
GAGTCCTACTGGGTTCTAACCTGTTGCCTAG [GAGTCCTCTAG_LTGcore_AC_RTGcore_CT] (site GAGTCCTCTAG) (LTG core: AC, RTG core: CT) | 0.674
GAGTCCTACTGGGTTCTAACCTGTTGCCTGT [GAGTCCTCTAG_LTGcore_AC_RTGcore_AC] (site GAGTCCTCTAG) (LTG core: AC, RTG core: AC) | 0.011
GAGTCCTAGTGGGTTCTAACCTGTTGCCTAG [GAGTCCTCTAG_LTGcore_AG_RTGcore_CT] (site GAGTCCTCTAG) (LTG core: AG, RTG core: CT) | 0.445
GAGTCCTCATGGGTTCTAACCTGTTGCCTAG [GAGTCCTCTAG_LTGcore_CA_RTGcore_CT] (site GAGTCCTCTAG) (LTG core: CA, RTG core: CT) | 1.08
GAGTCCTCCTGGGTTCTAACCTGTTGCCTGG [GAGTCCTCTAG_LTGcore_CC_RTGcore_CC] (site GAGTCCTCTAG) (LTG core: CC, RTG core: CC) | 0.561
